Results on 25 compounds are retold here after patent publication US7829665B2 (priority 2005, dated 2010).

Like-named read-outs stand apart in the source and are kept apart here. Where only a bound is given, the exact number is not on record here.

The subject of assay [1] is HCV sub-genomic replicon in GS4.3 cells (HuH-7 hepatoma cells). In words: Quantitation by ELISA of Neomycin phosphotransferase II (NPTII) in the HCV sub-genomic replicon, GS4.3. The following applies: Hepatitis C virus. It counts as cell-based, hepatitis C virus. As to the method: The HCV sub-genomic replicon (1377/NS3-3′, accession No. AJ242652), stably maintained in HuH-7 hepatoma cells, was created by Lohmann et al. Science 285: 110-113 (1999). The replicon-containing cell culture, designated GS4.3, was obtained from Dr. Christoph Seeger of the Institute for Cancer Research, Fox Chase Cancer Center, Philadelphia, Pa.
GS4.3 cells were maintained at 37° C., 5% CO2, in DMEM (Gibco 11965-092) supplemented with L-glutamine 200 mM (100×) (Gibco25030-081), non-essential amino acids (NEAA) (Biowhittaker 13-114E), heat-inactivated (HI) Fetal Bovine Serum (FBS) (Hyclone SH3007.03) and 750 μg/ml geneticin (G418) (Gibco 10131-035). Cells were sub-divided 1:3 or 4 every 2-3 days.
24 h prior to the assay, GS4.3 cells were collected, counted, and plated in 96-well plates (Costar 3585) at 7500 cells/well in 100 μl standard maintenance medium (above) and incubated in the conditions above. To initiate the assay, culture medium was removed, cells were washed once with PBS (Gibco 10010-023) and 90 μl Assay Medium (DMEM, L-glutamine, NEAA, 10% HI FBS, no G418) was added. Inhibitors were made as a 10× stock in Assay Medium, (3-fold dilutions from 10 μM to 56 pM final concentration, final DMSO concentration 1%), 10 μl were added to duplicate wells, plates were rocked to mix, and incubated as above for 72 h.
An NPTII Elisa kit was obtained from AGDIA, Inc. (Compound direct ELISA test system for Neomycin Phosphotransferase II, PSP 73000/4800). Manufacturer's instructions were followed, with some modifications. 10×PEB-1 lysis buffer was made up to include 500 μM PMSF (Sigma P7626, 50 mM stock in isopropanol). After 72 h incubation, cells were washed once with PBS and 150 μl PEB-1 with PMSF was added per well. Plates were agitated vigorously for 15 minutes, room temperature, then frozen at −70° C. Plates were thawed, lysates were mixed thoroughly, and 100 μl were applied to an NPTII Elisa plate. A standard curve was made. Lysate from DMSO-treated control cells was pooled, serially diluted with PEB-1 with PMSF, and applied to duplicate wells of the ELISA plate, in a range of initial lysate amount of 150 ul-2.5 ul. In addition, 100 μl buffer alone was applied in duplicate as a blank. Plates were sealed and gently agitated at room temperature for 2 h. Following capture incubation, the plates were washed 5×300 μl with PBS-T (0.5% Tween-20, PBS-T was supplied in the ELISA kit). For detection, a 1× dilution of enzyme conjugate diluent MRS-2 (5×) was made in PBS-T, into which 1:100 dilutions of enzyme conjugates A and B were added, as per instructions. Plates were resealed, and incubated with agitation, covered, room temperature, for 2 h. The washing was then repeated and 100 μl of room temperature TMB substrate was added. After approximately 30 minutes incubation (room temperature, agitation, covered), the reaction was stopped with 50 μl 3M sulfuric acid. Plates were read at 450 nm on a Molecular Devices Versamax plate reader.
Inhibitor effect was expressed as a percentage of DMSO-treated control signal, and inhibition curves were calculated using a 4-parameter equation: y=A+((B−A)/(1+((C/x)^D))), where C is half-maximal activity or EC50.

In assay [2] the target is T1, full-length NS3/NS4A-2 (HCV NS3 protease) (Hepatitis C virus genotype 1a, UniProt P27958).
T1 construct: Recombinant E. coli or Baculovirus full-length NS3 was diluted to 3.33 μM with assay buffer; made in house; host or cells: E. coli or baculovirus (BV) expression system
T1 sequence (P27958 1027-1657): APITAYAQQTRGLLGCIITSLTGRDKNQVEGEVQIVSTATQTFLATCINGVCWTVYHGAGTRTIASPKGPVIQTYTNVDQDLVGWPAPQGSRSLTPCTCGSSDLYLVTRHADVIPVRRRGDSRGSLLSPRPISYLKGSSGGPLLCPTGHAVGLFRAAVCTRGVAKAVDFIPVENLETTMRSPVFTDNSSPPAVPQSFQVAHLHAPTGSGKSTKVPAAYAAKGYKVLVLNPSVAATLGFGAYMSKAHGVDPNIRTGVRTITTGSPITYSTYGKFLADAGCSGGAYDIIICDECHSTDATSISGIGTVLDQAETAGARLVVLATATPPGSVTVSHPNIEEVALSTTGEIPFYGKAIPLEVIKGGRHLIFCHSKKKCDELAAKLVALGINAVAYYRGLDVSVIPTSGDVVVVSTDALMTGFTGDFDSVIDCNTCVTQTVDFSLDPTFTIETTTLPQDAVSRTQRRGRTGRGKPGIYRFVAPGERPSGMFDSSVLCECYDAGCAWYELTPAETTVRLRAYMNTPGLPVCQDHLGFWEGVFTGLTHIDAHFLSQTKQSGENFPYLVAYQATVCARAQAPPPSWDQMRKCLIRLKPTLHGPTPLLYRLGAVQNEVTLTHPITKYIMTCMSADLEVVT
In words: NS3-NS4 protease assay / NS3 inhibition assay (RETS1 substrate, fluorescence kinetic read). The following applies: read-out: NS3-NS4 IC50. It counts as biochemical. Put shortly: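 Full-length NS3 from E. coli (2 nM in assay) or baculovirus (3 nM) was precomplexed with excess NS4A-2 peptide, then preincubated 10 min at room temperature with serially diluted compounds starting at 50 microM. Reaction was started with RETS1 substrate at 8 μM before addition and read kinetically for 30 min (ex 335/em 495 nm). Four-parameter IC50s were converted to Ki by Cheng-Prusoff using Km 2.03 μM (E. coli) or 1.74 μM (BV).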

Setting [3] is: Huh-7, GS4.3 cells, 72 h incubation, NPTII ELISA, read-out: Replicon EC50.
[4] abbreviates: recombinant E. coli or Baculovirus full-length NS3 with NS4A-2.

Turning to `CC(NC(=O)[C@@]12C[C@H]1/C=C\CCCCC[C@H](NC(=O)OC(C)(C)C)C(=O)N1C[C@H](OC(=O)N3Cc4cccc(F)c4C3)C[C@H]1C(=O)N2)c1ccncc1` (stereo partly drawn) [Compound 618], the EC50 (in general, the concentration giving half of the maximal effect) in assay [1] (setting [3]) was less than 10000 nM. Also, the IC50 (usually the concentration that gives 50% inhibition) in assay [2] (setting [4]) was less than 0.1 µM.

For `CC(C)(C)OC(=O)N[C@H]1CCC(O)CC/C=C\[C@@H]2C[C@@]2(C(=O)O)NC(=O)[C@@H]2C[C@@H](OC(=O)N3Cc4cccc(F)c4C3)CN2C1=O` (stereo partly drawn) [Compound 1017], the EC50 in assay [1] (setting [3]) is greater than 10000 nM. The IC50 in assay [2] (setting [4]) is less than 1 µM.

With `CCOC(=O)[C@@]12C[C@H]1/C=C\CCCCC[C@H](N)C(=O)N1C[C@H](OC(=O)N3Cc4ccccc4C3)C[C@H]1C(=O)N2` [Compound 121], the 50% effective concentration (EC50) in assay [1] (setting [3]) is less than 1000 nM. In addition, the IC50 in assay [2] (setting [4]) is less than 1 µM.

Regarding `CC(C)(C)NC(=S)N[C@H]1CCCCC/C=C\[C@@H]2C[C@@]2(C(=O)NS(=O)(=O)C2CC2)NC(=O)[C@@H]2C[C@@H](OC(=O)N3Cc4cccc(F)c4C3)CN2C1=O` [Compound 239], the EC50 in assay [1] (setting [3]) is less than 100 nM. Moreover, the IC50 in assay [2] (setting [4]) was less than 0.1 µM.

As to `CCCNC(=O)[C@@]12C[C@H]1/C=C\CCCCC[C@H](N)C(=O)N1C[C@H](OC(=O)N3Cc4cccc(F)c4C3)C[C@H]1C(=O)N2` [Compound 621], the EC50 in assay [1] (setting [3]) is greater than 10000 nM. Further, the IC50 in assay [2] (setting [4]) was greater than 10 µM.

Turning to `CC(C)(C)OC(=O)N[C@H]1CCCCC/C=C\[C@@H]2C[C@@]2(C(=O)NS(=O)(=O)C2(C)CC2)NC(=O)[C@@H]2C[C@@H](OC(=O)N3Cc4ccccc4C3)CN2C1=O` [Compound 100, (1S,4R,6S,14S,18R)-1,3-Dihydro-isoindole-2-carboxylic acid 14-tert-butoxycarbonylamino-4-(1-methylcyclopropane-1-sulfonyl)aminocarbonyl-2,15-dioxo-3,16-diaza-tricyclo[14.3.0.0^4,6]nonadec-7-en-18-yl ester], in assay [1] (Huh-7, 72 h, read-out: Replicon EC50), the EC50 is less than 100 nM.

Take `O=C(CCC(F)(F)F)N[C@H]1CCCCC/C=C\[C@@H]2C[C@@]2(C(=O)NS(=O)(=O)C2CC2)NC(=O)[C@@H]2CCCN2C1=O` [Compound 2139]: in assay [1] (Huh-7, Table 26, read-out: EC50), the EC50 was less than 1000 nM.

`CC(C)(C)OC(=O)NC1CCCCC/C=C\[C@H]2C[C@@]2(C(=O)NS(=O)(=O)NCC(F)(F)F)NC(=O)C2CC(OC(=O)N3Cc4cccc(Cl)c4C3)CN2C1=O` (single isomer, unassigned) [Compound 226]: in assay [1] (setting [3]), the EC50 was less than 100 nM.

On to `C[C@@H](NC(=O)O[C@@H]1C[C@H]2C(=O)N[C@]3(C(=O)NS(=O)(=O)C4CC4)C[C@H]3/C=C\CCCCC[C@H](NC(=O)OC(C)(C)C)C(=O)N2C1)c1ccc(F)cn1` [Compound 150], for which, in assay [1] (setting [3]), the EC50 was greater than 10000 nM.

For `O=C(N[C@H]1CCCCC/C=C\[C@@H]2C[C@@]2(C(=O)O)NC(=O)C2Cc3cc(Oc4cccc(Cl)c4)ccc3CN2C1=O)OC1CCCC1` (stereo partly drawn) [Compound 2002, (Z)-15-(3-chlorophenoxy)-9-(cyclopentyloxycarbonyl)-10,18-dioxo-1a,4,5,6,7,8,9,10,12,17,17a,18,19,19a-tetradecahydro-1H-11,14-diaza-bicyclo[13.1.0]hexadeca-1(16), 2-dieno[11,12-b]isoquinoline-19a-carboxylic acid], the concentration for half-maximal inhibition (IC50) in assay [2] (setting [4]) was less than 10 µM.

`CC(C)(C)OC(=O)N[C@H]1CCCCC/C=C\[C@@H]2C[C@@]2(C(=O)NS(=O)(=O)Nc2cccc(Cl)c2)NC(=O)[C@@H]2CCCN2C1=O` [Compound 2239]: in assay [2] (setting [4]), the IC50 is less than 1 µM.

In the case of `CC(C)(C)OC(=O)N[C@H]1CCCCC/C=C\[C@@H]2C[C@@]2(C(=O)NS(=O)(=O)C2(Cc3ccccc3)CC2)NC(=O)[C@@H]2CCCN2C1=O` [Compound 301], the IC50 in assay [2] (setting [4]) was less than 10 µM.

Take `CC(C)(C)OC(=O)N[C@H]1CCCCC/C=C\[C@@H]2C[C@@]2(C(=O)NS(=O)(=O)OCCc2ccccc2)NC(=O)[C@@H]2CCCN2C1=O` [Compound 801]: the IC50 in assay [2] (setting [4]) is less than 10 µM.

Take `C=CCNS(=O)(=O)NC(=O)[C@@]12C[C@H]1/C=C\CCCCC[C@H](NC(=O)OC(C)(C)C)C(=O)N1CCC[C@H]1C(=O)N2` [Compound 2238]: the IC50 in assay [2] (setting [4]) was less than 1 µM.

Turning to `CC(C)(C)OC(=O)N[C@H]1CCCCC/C=C\[C@@H]2C[C@@]2(C(=O)NS(=O)(=O)/C=C/c2ccccc2)NC(=O)[C@@H]2CCCN2C1=O` [Compound 2125], the half-maximal inhibitory concentration (IC50) in assay [2] (setting [4]) is less than 1 µM.

As to `CC(C)(C)OC(=O)N[C@H]1CCCCC/C=C\[C@@H]2C[C@@]2(C(=O)NS(=O)(=O)Nc2ccc(F)cc2)NC(=O)[C@@H]2CCCN2C1=O` [Compound 2237], in assay [2] (setting [4]), the IC50 was less than 1 µM.

Consider `COC(=O)c1csc(S(=O)(=O)NC(=O)[C@@]23C[C@H]2/C=C\CCCCC[C@H](NC(=O)OC(C)(C)C)C(=O)N2CCC[C@H]2C(=O)N3)c1OC` [Compound 310], for which the IC50 in assay [2] (setting [4]) was greater than 10 µM.

Take `CC(C)(C)OC(=O)N[C@H]1CCCCC/C=C\[C@@H]2C[C@@]2(C(=O)NCC2CC2)NC(=O)[C@@H]2CCCN2C1=O` [Compound 2302]: in assay [2] (Table 22), the IC50 is less than 10 µM.

Consider `O=C(N[C@H]1CCCCC/C=C\[C@@H]2C[C@@]2(C(=O)NS(=O)(=O)C2CC2)NC(=O)[C@@H]2C[C@@H](OC(=O)N3Cc4cccc(F)c4C3)CN2C1=O)C(O)C(F)(F)F` (single isomer, unassigned) [Compound 247], for which the EC50 in assay [1] (setting [3]) was less than 100 nM.

Consider `CC(C)(C)OC(=O)N[C@H]1CCCCC/C=C\[C@@H]2C[C@@]2(C(=O)NS(=O)(=O)N2CCC2)NC(=O)[C@@H]2CCCN2C1=O` [Compound 2206], for which the IC50 in assay [2] (setting [4]) was less than 10 µM.

Take `CC(C)(C)OC(=O)N[C@H]1CCCCC/C=C\[C@@H]2C[C@@]2(C(=O)O)NC(=O)C2Cc3ccccc3CN2C1=O` (stereo partly drawn) [Compound 2001, (1aS,9S,19aR,Z)-9-(tert-Butoxycarbonyl)-10,18-dioxo-1a,4,5,6,7,8,9,10,12,17,17a,18,19,19a-tetradecahydro-1H-11,14-diaza-bicyclo[13.1.0]hexadeca-1(15), 2-dieno[11,12-b]isoquinoline-19a-carboxylic acid]: the IC50 in assay [2] (setting [4]) was greater than 10 µM.

Regarding `CC(C)(C)OC(=O)N[C@H]1CCCCC/C=C\[C@@H]2C[C@@]2(C(=O)NS(=O)(=O)c2cc(Cl)ccc2F)NC(=O)[C@@H]2CCCN2C1=O` [Compound 2150], in assay [2] (setting [4]), the IC50 is less than 10 µM.

On to `CC(C)(C)OC(=O)N[C@H]1CCCCC/C=C\[C@@H]2C[C@@]2(C(=O)N[S@@+]([O-])C(C)(C)C)NC(=O)[C@@H]2CCCN2C1=O` [Compound 2401, (1S,4R,6S,14S)tert-Butyl 4-((S)-2-methylpropane-2-sulfinyl)-aminocarbonyl-2,15-dioxo-3,16-diaza-tricyclo[14.3.0.0^4,6]nonadec-7-ene-14-yl carbamate], for which the IC50 in assay [2] (setting [4]) was less than 0.1 µM.

With `CC(C)(C)OC(=O)N[C@H]1CCCCC/C=C\[C@@H]2C[C@@]2(C(=O)NS(=O)(=O)Cc2cccc(Cl)c2)NC(=O)[C@@H]2CCCN2C1=O` [Compound 2118], in assay [2] (setting [4]), the IC50 is less than 1 µM.

For the compound `CC(C)(C)OC(=O)N[C@H]1CCCCC/C=C\[C@@H]2C[C@@]2(C(=O)N[S@@+]([O-])C(C)(C)C)NC(=O)[C@@H]2C[C@@H](OC(=O)N3Cc4ccccc4C3)CN2C1=O` [Compound 2601, (1S,4R,6S,14S,18R)-1,3-Dihydro-isoindole-2-carbonyloxylic acid 14-tert-butoxycarbonylamino-4-((S)-2-methylpropane-2-sulfinyl)aminocarbonyl-2,15-dioxo-3,16-diaza-tricyclo[14.3.0.0^4,6]nonadec-7-ene-18-yl ester], the IC50 in assay [2] (Table 25) is greater than 10 µM.
